Measurements published in US20090196917A1, “Liposomal Formulations of Hydrophobic Lactone Drugs in the Presence of Metal Ions” (University of Kentucky Research Foundation, priority 2008, published 2009).
“And” between values parts separate entries of the source, which are not always exact repeats. Equal values may be shown once.

What was measured:
[1] = after 24 hrs, novel approach (active loading)
[2] = pH 7.4
[3] = after intravenous administration, animal data; cited from earlier work
[4] = Active loading of DB-67 into Ca(OAc)2 DSPC/m-PEG DSPE vesicles (Example 15); details: end of loading
[5] = Active loading of DB-67 into liposomes, calcium acetate gradient (Example 14); details: liposomes made by active loading procedure, pH and calcium ion gradient, 40° C.

CC[C@@]1(O)C(=O)OCc2c1cc1n(c2=O)Cc2c-1nc1ccc(O)cc1c2[Si](C)(C)C(C)(C)C [DB-67, silatecan 7-t-butyldimethylsilyl-10-hydroxycamptothecin]
retained drug [1]: approximately 50%
half-life for release (liposome retention) [2]: 22 ± 6 h
lactone to total AUC [3]: > 90%
intravesicular DB-67 concentration [4]: ~21 mM and ~10 mg/mL
suspension drug concentration (all drug being entrapped) [5]: ≤ 3 mM
